Counter-ions that a name gives are not always drawn.

A word on the IC50: it is the concentration at which inhibition is half-maximal.

One assay concerns the target T1, ENaC (Epithelial Sodium Channel) (Mus musculus, UniProt Q61180+Q9WU38+Q9WU39).
T1 construct: Mouse kidney M−1 cells were cultivated in DMEM; endogenous in cells; host or cells: Mouse kidney M-1 cells, cultivated with dexamethasone on transwell filters
T1 sequence (Q61180 1-699): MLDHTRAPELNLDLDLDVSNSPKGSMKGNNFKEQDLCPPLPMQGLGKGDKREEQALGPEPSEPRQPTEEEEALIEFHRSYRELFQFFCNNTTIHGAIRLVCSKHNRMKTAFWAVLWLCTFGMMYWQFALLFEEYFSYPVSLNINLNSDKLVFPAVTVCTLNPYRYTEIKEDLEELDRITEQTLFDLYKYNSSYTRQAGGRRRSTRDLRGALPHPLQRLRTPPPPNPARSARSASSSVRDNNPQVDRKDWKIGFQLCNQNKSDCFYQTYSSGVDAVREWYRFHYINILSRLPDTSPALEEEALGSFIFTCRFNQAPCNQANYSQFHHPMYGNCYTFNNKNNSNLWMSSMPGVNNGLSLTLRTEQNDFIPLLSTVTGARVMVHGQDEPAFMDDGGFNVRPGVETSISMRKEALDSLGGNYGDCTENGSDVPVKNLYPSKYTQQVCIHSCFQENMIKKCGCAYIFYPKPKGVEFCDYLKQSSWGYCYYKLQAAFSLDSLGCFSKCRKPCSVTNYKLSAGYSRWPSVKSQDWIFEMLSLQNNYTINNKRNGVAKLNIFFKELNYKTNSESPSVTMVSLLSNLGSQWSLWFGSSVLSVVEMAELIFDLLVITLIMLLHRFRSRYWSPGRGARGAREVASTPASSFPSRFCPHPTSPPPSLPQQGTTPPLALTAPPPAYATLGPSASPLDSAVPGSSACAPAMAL
T1 sequence (Q9WU38 1-638): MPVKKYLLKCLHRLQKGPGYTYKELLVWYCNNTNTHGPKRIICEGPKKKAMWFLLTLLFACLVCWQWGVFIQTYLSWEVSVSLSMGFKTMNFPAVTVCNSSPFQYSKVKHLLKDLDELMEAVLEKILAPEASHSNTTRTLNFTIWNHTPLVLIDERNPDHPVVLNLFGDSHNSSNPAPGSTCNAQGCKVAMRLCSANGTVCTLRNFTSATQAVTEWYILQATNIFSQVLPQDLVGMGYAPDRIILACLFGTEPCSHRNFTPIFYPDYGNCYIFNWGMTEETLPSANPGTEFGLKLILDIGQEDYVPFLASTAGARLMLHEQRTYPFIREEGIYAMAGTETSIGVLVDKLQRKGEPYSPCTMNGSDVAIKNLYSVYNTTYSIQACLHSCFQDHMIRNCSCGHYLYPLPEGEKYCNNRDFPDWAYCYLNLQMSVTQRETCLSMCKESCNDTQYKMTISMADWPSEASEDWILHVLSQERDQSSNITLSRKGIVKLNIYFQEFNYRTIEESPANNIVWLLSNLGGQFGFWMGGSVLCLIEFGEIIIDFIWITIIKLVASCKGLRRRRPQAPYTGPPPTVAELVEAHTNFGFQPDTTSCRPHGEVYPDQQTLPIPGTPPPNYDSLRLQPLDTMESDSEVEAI
T1 sequence (Q9WU39 1-655): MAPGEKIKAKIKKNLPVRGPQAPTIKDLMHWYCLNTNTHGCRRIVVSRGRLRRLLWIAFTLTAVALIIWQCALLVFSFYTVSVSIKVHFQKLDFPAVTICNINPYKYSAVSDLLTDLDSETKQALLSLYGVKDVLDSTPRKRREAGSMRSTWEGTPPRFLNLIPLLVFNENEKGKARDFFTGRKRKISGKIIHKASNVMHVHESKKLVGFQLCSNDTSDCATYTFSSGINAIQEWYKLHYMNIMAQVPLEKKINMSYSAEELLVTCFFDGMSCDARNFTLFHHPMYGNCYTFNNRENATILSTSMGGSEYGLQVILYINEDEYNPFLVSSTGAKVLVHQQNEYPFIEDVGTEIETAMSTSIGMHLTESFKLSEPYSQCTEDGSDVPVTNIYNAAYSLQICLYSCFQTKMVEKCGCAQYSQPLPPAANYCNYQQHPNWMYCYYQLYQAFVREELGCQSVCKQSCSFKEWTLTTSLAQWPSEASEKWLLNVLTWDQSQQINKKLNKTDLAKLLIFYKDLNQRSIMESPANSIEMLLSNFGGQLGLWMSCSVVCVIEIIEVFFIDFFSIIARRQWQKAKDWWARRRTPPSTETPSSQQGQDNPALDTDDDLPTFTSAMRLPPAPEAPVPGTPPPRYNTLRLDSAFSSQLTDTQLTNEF
The assay is described as follows: Ussing Chamber assay (short circuit current, amiloride sensitive I_SC). It is filed as cell-based. The following applies: Ussing chamber, mouse kidney M-1 cells, short circuit current, compound added to the apical solution; read-out: IC50. The gist of the method: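 Mouse kidney M-1 cells grown 10–12 days on filters with 5 μM dexamethasone, measured in Caco-2 transport buffer at 37° C under voltage clamp. Compound applied apically at 3 μM or 1-3-10 μM; 3 μM amiloride added at end. Short circuit current inhibition given as percent of amiloride effect or IC50.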
`Nc1nc(N)c(C(=O)NC2CCC[N+](CCc3c[nH]c4ccccc34)(CCc3c[nH]c4ccccc34)C2)nc1Cl` (centres unmarked) [Example 10.1, 3-[(3,5-Diamino-6-chloro-pyrazine-2-carbonyl)-amino]-1,1-bis-[2-(1H-indol-3-yl)-ethyl]-piperidinium chloride]: the IC50 amounted to 140 nM. For the compound `COc1cccc(CCC[N+]2(CCCc3cccc(OC)c3)CCCC(NC(=O)c3nc(Cl)c(N)nc3N)C2)c1` (centres unmarked) [Example 10.2, 3-[(3,5-Diamino-6-chloro-pyrazine-2-carbonyl)-amino]-1,1-bis-[3-(3-methoxy-phenyl)-propyl]-piperidinium chloride], the IC50 came out at 27 nM. On the same count and under the same terms, for `Nc1nc(N)c(C(=O)N[C@@H]2CCC[N+](CCCc3c(F)cccc3F)(CCCc3c(F)cccc3F)C2)nc1Cl` [Example 10.3, 3-[(3,5-Diamino-6-chloro-pyrazine-2-carbonyl)-amino]-1,1-bis-[3-(2,6-difluoro-phenyl)-propyl]-piperidinium chloride] the value was 47 nM; for `Nc1nc(N)c(C(=O)NC2CCC[N+](CCCc3ccccc3)(CCCc3ccccc3)C2)nc1Cl` (centres unmarked) [Example 10.4, 3-[(3,5-Diamino-6-chloro-pyrazine-2-carbonyl)-amino]-1,1-bis-(3-phenyl-propyl)-piperidinium chloride], 15 nM. `COc1ccc(OCC[N+]2(CCOc3ccc(OC)cc3)CCC[C@H](NC(=O)c3nc(Cl)c(N)nc3N)C2)cc1` [Example 10.6, 3-[(3,5-Diamino-6-chloro-pyrazine-2-carbonyl)-amino]-1,1-bis-[2-(4-methoxy-phenoxy)-ethyl]-piperidinium chloride]: the half-inhibitory concentration (IC50) worked out at 104 nM. Still for that read-out and setting: the value for `Nc1nc(N)c(C(=O)N[C@H]2CCC[N+](CCOc3ccccc3)(CCOc3ccccc3)C2)nc1Cl` [Example 10.7, 3-[(3,5-Diamino-6-chloro-pyrazine-2-carbonyl)-amino]-1,1-bis-[2-phenoxy-ethyl]-piperidinium chloride] was 158 nM.

The assay is the same for the next values; noted with them: Ussing chamber, mouse kidney M-1 cells, short circuit current; unit inferred; read-out: IC50.
Take `CCOc1ccc(CCC[N+]2(CCCc3ccc(OCC)cc3)CCCC(NC(=O)c3nc(Cl)c(N)nc3N)C2)cc1` (centres unmarked) [Example 9.2, 3-[(3,5-Diamino-6-chloro-pyrazine-2-carbonyl)-amino]-1,1-bis-[3-(4-ethoxy-phenyl)-propyl]-piperidinium chloride]: the 50% inhibitory concentration (IC50) is 26 nM. Turning to `COCCOc1ccc(CCC[N+]2(CCCc3ccc(OCCOC)cc3)CCCC(NC(=O)c3nc(Cl)c(N)nc3N)C2)cc1` (centres unmarked) [Example 9.3, 3-[(3,5-Diamino-6-chloro-pyrazine-2-carbonyl)-amino]-1,1-bis-{3-[4-(2-methoxy-ethoxy)-phenyl]-propyl}-piperidinium chloride], the half-maximal inhibitory concentration (IC50) was 22 nM. Still for that read-out and setting: for `Nc1nc(N)c(C(=O)N[C@H]2CCC[N+](CCCc3ccc(OCCOCCOCCOCCO)cc3)(CCCc3ccc(OCCOCCOCCOCCO)cc3)C2)nc1Cl` [Example 9.4, 3-[(3,5-Diamino-6-chloro-pyrazine-2-carbonyl)-amino]-1,1-bis-{3-[4-(2-{2-[2-(2-hydroxy-ethoxy)-ethoxy]-ethoxy}-ethoxy)-phenyl]-propyl}-piperidinium chloride] the value was 67 nM; for `CN(C)CCOc1ccc(CCC[N+]2(CCCc3ccc(OCCN(C)C)cc3)CCC[C@H](NC(=O)c3nc(Cl)c(N)nc3N)C2)cc1` [Example 9.5, 3-[(3,5-Diamino-6-chloro-pyrazine-2-carbonyl)-amino]-1,1-bis-{3-[4-(2-dimethylamino-ethoxy)-phenyl]-propyl}-piperidinium chloride dihydrochloride], 63 nM. Same read-out and setting: the value for `Nc1nc(N)c(C(=O)N[C@H]2CCC[N+](CCCc3ccc(OCCO)cc3)(CCCc3ccc(OCCO)cc3)C2)nc1Cl` [Example 9.6, (S)-3-[(3,5-Diamino-6-chloro-pyrazine-2-carbonyl)-amino]-1,1-bis-{3-[4-(2-hydroxyethoxy)-phenyl]-propyl}-piperidinium chloride] was 38 nM.

The record behind these values is patent US9096548B2, “Pyrazine amide compounds” (Boehringer Ingelheim International GmbH, priority 2013, dated 2015).
